# Laboratory results: PMC12349723, “Computationally accelerated identification of P-glycoprotein inhibitors” (PLOS One, 2025)
# Values joined by “and” are separate entries in the source; they are usually repeats but may differ in a detail not shown here. Equal values may be shown once. Read-outs that look alike come from different tables or passages of the source.
# Columns and labels:
# [1] = SWISS-ADME computational analysis of chemical properties; conditions: predicted aqueous solubility compared to that observed in the laboratory
# Excerpt: Identifying P-gp inhibitors that are not transport substrates remains inherently challenging. To that end, computational tools such as the SWISS-ADME server attempt to use a molecule’s unique chemical and structural characteristics to predict whether it is likely to be a P-gp transport substrate. Our LC-MS/MS assays allowed us to retroactively test the validity of predictions from SWISS-ADME. […] Alternative identifiers for the molecules identified in this study are shown in S7 Table.
# S1 Table. Known P-gp Inhibitors and Predicted Chemical Properties. A non-exhaustive list of known P-gp inhibitors and their selected chemical properties ^[64, 65]. Clinical trial outcomes were adapted from ^[10, 11]. Compounds were evaluated using the SWISS-ADME server ^[54]. […] “Predicted P-gp Substrate” - predicted by SWISS-ADME to be a transport substrate of P-gp. “Known P-gp Substrate” – In addition to being P-gp inhibitors, these molecules are: known transport substrates of P-gp, known non-transport substrates of P-gp, unknown whether it is a transport substrate of P-gp ^[66-68]. If the molecule is designated in a specific generation of P-gp inhibitors - First Generation P-gp inhibitors, Second generation P-gp inhibitors, Third generation P-gp inhibitors.
# DU145 cells = assay: MTT viability assay, non-P-gp overexpressing DU145 parental line, with or without PTX; format: cell-based, human; conditions: for Sensitization of DU145 cells to PTX: 15 µM compound + PTX vs PTX alone; for viability at 15 µM: Homo sapiens, DU-145, 48 h
# Procedure: The chemotherapeutic sensitive DU145 human prostate cancer cells and the multidrug resistant sub-line, DU145-TXR, were generous gifts from Dr. Evan Keller (University of Michigan, Ann Arbor, MI). The MDR, P-gp overexpressing DU145-TXR cells were maintained under positive selection pressure by supplementing complete medium with 10 nM paclitaxel (Acros Organics, NJ). […] The MDR, P-gp overexpressing A2780-ADR cell line was maintained under positive selection pressure by supplementing complete medium with 100 nM doxorubicin (Fisher Scientific, NJ). The non-cancerous HFL1 (human lung fibroblast) cell line cell line was a generous gift from Dr. Robert Harrod (Southern Methodist University, Dallas, TX) and was maintained in complete F12K media consisting of F12K with 10% fetal bovine serum, 100 U/mL penicillin, and 100 µg/mL streptomycin (Gibco). Flasks and 96 well plates that were used with the non-cancerous line HFL1 were pre-treated with 0.1 mg/ml Collagen Type 1 (Gibco) and rinsed with PBS (Fisher).
# Culture of the DU145, DU145-TXR, and HFL1 cell lines was performed as described in [8]. Culture of the A2780 and A2780-ADR cell lines was performed as described in [9]. MTT assays were performed as described in [8] with minor modifications. […] Data represent the mean of two separate experiments, with n = 3 samples per experiment (n = 6 total) (S4 Table).
# MTT assays measure the reduction of yellow, water soluble 3-(4,5-dimethylthiazol-2-yl)-2,5-diphenyltetrazolium bromide (MTT) to blue, insoluble formazan crystals by cellular reductase processes in living cells. Cells were trypsinized from monolayers and seeded in complete medium in 96 well plates. Cancerous cell lines (DU145, DU145-TXR, A2780, A2780-ADR) were seeded at 3,000 cells per well in complete RPMI medium. The non-cancerous HFL1 line was seeded at 4,000 cells per well in complete F12K medium, in collagen-treated plates (Collagen Type 1, Gibco). Cells were incubated with experimental compounds for 48 hours at 37 °C and 5% CO2 in a humidified incubator. At 48 hours, MTT was added (20 µL/well of 5 mg/mL MTT in PBS) to each well. After incubation for 4 hours, the media was removed, and the formazan crystals were dissolved in 100 µL DMSO per well. Plates containing the semi-adherent A2780 or A2780-ADR lines were spun at 1400 rpm for 3 minutes prior to aspiration of media, and the addition of DMSO. Plates were shaken for 10 minutes at 500 rpm on an Orbital shaker (LabDoctor from MidSci, St Louis, MO). The absorbance was measured at 570 nm using a Bio-Tek Cytation 5 (Bio-Tek, Winooski, VT). The measured absorbance value was correlated with the number of metabolically active cells in that well, corrected for absorbance of media. The percent of cell viability (termed ‘survival’ here) was calculated as a percentage of survival of the control condition, which refers to vehicle-treated (DMSO as vehicle) cells, or vehicle-and-chemotherapeutic-treated cells, if testing a compound’s ability to re-sensitize cells to a chemotherapeutic. Percent survival was calculated using the following equation:
# % Survival=100 × absorbance of experimental cells/mean absorbance of control treated cells
# For DU145-TXR, DU145, HFL1 and A2780 cells – data are the mean ± one standard deviation, 8 samples per compound, from at least two independent trials per compound. […] For A2780-ADR cells, data are the mean ± one standard deviation with 12 samples per compound, from at least two independent trials per compound.
# 67 compounds were chosen from computational screens for testing in vitro. A) DU145-TXR cells were exposed to 15 µM experimental compound with or without 500 nM of the P-gp substrate and chemotherapeutic paclitaxel (PTX).
# [2] = DU145 cells, 48 h, mean of 8 samples
# [3] = DU145 cells, 48 h, single samples, 2 trials x 4 samples
# [4] = DU145 cells, 48 h, mean of 8 samples, read-out: % Survival, Mean, 15 µM Compound alone
# [5] = DU145 cells, 48 h, single samples, 2 trials x 4 samples, read-out: % Survival, 15 µM Compound alone (individual samples)
SMILES,Correct Water Solubility Prediction? [1],Sensitization of DU145 cells to PTX (DU145 cells),"% Survival, Mean, 15 µM compound + 500 nM PTX (DU145 cells; [2]) [%]","% Survival, 15 µM Compound alone (individual samples) (DU145 cells; [3])","% Survival, 15 µM compound + 500 nM PTX (individual samples) (DU145 cells; [3])",viability at 15 µM (DU145 cells; [4]) [%],"% Survival, Mean, 15 µM Compound alone (DU145 cells; [2]) [%]",viability at 15 µM (DU145 cells; [5]) [%]
"Nc1nonc1-n1nnc(C(=O)N/N=C/c2c3ccccc3cc3ccccc23)c1COc1ccc(F)cc1 [Compound 60, Nc1nonc1-n1nnc(C(=O)N\N=C\c2c3ccccc3cc3ccccc23)c1COc1ccc(F)cc1]",No,,,,,,,
"NS(=O)(=O)c1cccc(NC(=O)CSc2nnnn2C2CC2)c1 [Compound 89, NS(=O)(=O)c1cccc(NC(=O)CSc2nnnn2C2CC2)c1]",Yes,,,,,,,
"O=S(=O)(CCSc1nnc(-c2ccccc2)c2ccccc12)c1ccccc1 [Compound 96, O=S(=O)(CCSc1nnc(-c2ccccc2)c2ccccc12)c1ccccc1]",No,insignificantly sensitize DU145 cells to PTX,28.8,65%,26%,77,,
"Cn1cnnc1SCc1c(C(=O)O)nnn1-c1nonc1N [Compound 59, Cn1cnnc1SCc1c(nnn1-c1nonc1N)C(O)=O]",Yes,,,,,,,
"CCN1CCN(Cc2c(C(=O)N/N=C3/C(=O)N(C)c4ccccc43)nnn2-c2nonc2N)CC1 [Compound 61, CCN1CCN(Cc2c(nnn2-c2nonc2N)C(=O)N\N=C2\C(=O)N(C)c3ccccc23)CC1]",No,,14.3,,,55.6,,
"O=C(c1nc(-c2ccccn2)no1)N1CCN(c2nsc3ccccc23)CC1 [Compound 124, O=C(N1CCN(CC1)c1nsc2ccccc12)c1nc(no1)-c1ccccn1]",Yes,insignificantly sensitize DU145 cells to PTX,20.9,85%,17% and 26%,76.9,,
"O=C(NCc1cccc(F)c1)c1nnn2c1Sc1c(C(=O)NCc3cccc(F)c3)nnn1CC2 [Compound 122, Fc1cccc(CNC(=O)c2nnn3CCn4nnc(C(=O)NCc5cccc(F)c5)c4Sc23)c1]",Yes,insignificantly sensitize DU145 cells to PTX,19.4,,,60.9,,
"COc1ccc2c3c([nH]c2c1)[C@H](CC(C)C)N1C(=O)[C@H](CCC(=O)OC(C)(C)C)NC(=O)[C@@H]1C3 [Ko143, reference compound]",,,20.1,89% and 88% and 53% and 50% and 46% and 42% and 86% and 91%,12% and 13% and 16% and 22% and 23% and 24% and 25%,,68.1,
"O=C(c1cc2ccccc2[nH]1)N1CCN(S(=O)(=O)c2cccc3nonc23)CC1 [Compound 66, O=C(N1CCN(CC1)S(=O)(=O)c1cccc2nonc12)c1cc2ccccc2[nH]1]",Yes,,,,,,,
"O=C(c1nc(-c2ccc3cc[nH]c3c2)no1)N1CCN(c2nsc3ccccc23)CC1 [Compound 70, O=C(N1CCN(CC1)c1nsc2ccccc12)c1nc(no1)-c1ccc2cc[nH]c2c1]",Yes,insignificantly sensitize DU145 cells to PTX,30.5,88%,32% and 30%,84.7,,
"Cc1onc(-c2ccccc2)c1-c1nnc(Cn2cnc3ccccc3c2=O)o1 [Compound 111, Cc1onc(c1-c1nnc(Cn2cnc3ccccc3c2=O)o1)-c1ccccc1]",Yes,insignificantly sensitize DU145 cells to PTX,19.3,72%,,73.5,,80
"COc1cc2c(cc1OC)CN(CCc1ccc(NC(=O)c3cc(OC)c(OC)cc3NC(=O)c3cnc4ccccc4c3)cc1)CC2 [Tariquidar, reference compound]",,,12.0,,,86.1,,
"COc1cccc(N2CCN(c3ccc4nnc(CCC(=O)Nc5ccc(F)c(F)c5)n4n3)CC2)c1 [Compound 101, COc1cccc(c1)N1CCN(CC1)c1ccc2nnc(CCC(=O)Nc3ccc(F)c(F)c3)n2n1]",Yes,insignificantly sensitize DU145 cells to PTX,24.0,89%,,89.9,,92
"COc1ccc(OC)c(NC(=O)c2nnn(-c3ccc4noc(-c5ccccc5)c4c3)c2C)c1 [Compound 71, COc1ccc(OC)c(NC(=O)c2nnn(c2C)-c2ccc3noc(-c4ccccc4)c3c2)c1]",Yes,,,,,,,
"Cc1ccc(-c2noc(-c3cn(Cc4ccc(NS(=O)(=O)c5ccccc5F)cc4)cn3)n2)cc1 [Compound 103, Cc1ccc(cc1)-c1noc(n1)-c1cn(Cc2ccc(NS(=O)(=O)c3ccccc3F)cc2)cn1]",No,insignificantly sensitize DU145 cells to PTX,29.4,,,77.7,,
"Cc1onc(-c2ccccc2)c1-c1nnc(Cn2cnc3c(oc4ccccc43)c2=O)o1 [Compound 78, Cc1onc(c1-c1nnc(Cn2cnc3c4ccccc4oc3c2=O)o1)-c1ccccc1]",Yes,insignificantly sensitize DU145 cells to PTX,33.6,94%,31%,89.2,,
"O=S(=O)(Cc1nc2ccccc2n1CC(O)c1ccc(Cl)cc1)c1ccccc1 (stereo not drawn) [Compound 97, OC(Cn1c(CS(=O)(=O)c2ccccc2)nc2ccccc12)c1ccc(Cl)cc1]",Yes,insignificantly sensitize DU145 cells to PTX,23.9,72%,,73.5,,
